Columns and labels:
monocyte cultures = test: Assay of cell number (MTT) in monocyte cultures; format: cell-based, human; conditions: naloxone added to monocyte cultures
Excerpt: Methods: Human Bone Marrow was Collected from Consenting Adult Patients undergoing either an elective primary proximal femoral total hip arthroplasty or elective primary distal femoral total knee arthroplasty (n=6, mean age 65) as a part of an IRB approved study. Human MSC were derived from the adherent fraction of cells derived from each whole bone marrow aspirate collected, while the monocyte population was collected from the non-adherent fraction of the bone marrow. The monocyte fraction was enriched through sub-culture with 100-ng/mL recombinant human macrophage colony-stimulating factor (MCSF; Wyeth). In parallel experiments described below, the femurs from 3-week (n=10) and 16-week (n=20) old male mice were collected and then the bone marrow was flushed from the femur according to the following: A 21-gauge needle was inserted into the femoral intramedular canal after the removal of the proximal and distal ends of the femur. […]
Assay of Cell Number: Following the addition of 1-mM naloxone or 1-mM naltrexone, viable cell number was determined with the MTT assay. […] MTT was measured at 570-nm and the effects of therapy on cell proliferation were determined by normalizing treated wells relative to mean values from non-treated wells: Fold change in cell number=100*[treated cells optical density/mean control optical density].

[1] = tested on: monocytes cultured to become osteoclasts; test: TRAP staining and assay of osteoclast number; format: cell-based, human, mouse
Protocol: TRAP Staining and the Assay of Osteoclast Number: Osteoclasts were derived from either an enriched population of human monocytes or from mouse non-enriched whole bone marrow aspirates. Three human patient bone marrow samples were assayed in parallel with samples collected from 3-week (n=10) mouse bone marrow. The monocyte fraction was stimulated to become osteoclasts by culturing 1×10^6 cells with 25-ng/mL of MCSF and 25-ng/mL of recombinant human or mouse RANK-ligand (R&D Systems) in the presence of the met5-ligand ([5-μM] 2.87-, or [50-μM] 28.7-μg; Sigma), naloxone (400-ng or 400-μg; Sigma) or naltrexone (378-ng or 378-μg; Sigma). Osteoclasts were stained with tartrate resistant acid phosphatase (TRAP; Sigma Leukocyte Acid Phosphatase Kit 387-A) and counted when cells stained TRAP-positive and had at least three nuclei. Estimates of osteoclast number were obtained by Cavalieri sampling and a modification of the fractionator technique.

[2] = tested on: unicortical defect in mouse tibia; test: Unicortical defect model, direct injection, microCT; format: in vivo, C57BL/6 mice
Protocol: Unicortical Defect Model: Male 3-week old C57BL/6 mice (n=5 per treatment group) were injected with met5, naloxone or naltrexone following the creation of a unicortical defect. Briefly, a small incision (approximately 3-mm) was made just below the knee joint, located on the medial side of the tibia just below the tibial tuberosity on the tibial crest. In young animals the physeal plate is clearly visible and the drill bit was placed approximately 1-mm below this point. The drill-bit produces a unicortical defect with dimensions 300-μm diameter×1-mm depth. A Hamilton Neuros RN 10-μL syringe with a 33-gauge blunt tip needle was used to inject 2-μL of met5 (28.7-μg), naloxone (400-μg) or naltrexone (378-μg) resuspended in saline directly into the unicortical defect at a rate no faster than approximately 0.1-μL per second. The left-limb tibias served as contra-lateral surgical controls, in which animals received a unicortical defect and 2-μL of saline was injected. Mice were euthanized 5-days after surgery, hind limbs were collected and tibias were fixed for immunofluorescence, TRAP staining and OTC associated bone growth.
MicroCT Analysis of Unicortical Defects: High-resolution images of the tibia were acquired with μCT imaging system (μT40; Scanco Medical). Tibias were scanned at 45-keV with an isotropic voxel size of 12-μm. An analysis region was selected from axial sections to include the entire unicortical defect bounded by the endosteal cortical wall. The volume corrected bone volume (bone volume/total volume; By/Tv), trabecular number (TbN) and trabecular thickness (TbTh) were calculated using the Scanco software.

[3] = tested on: posterolateral lumbar spine; test: Rat posterolateral spinal fusion of L5-L6 vertebrae, microCT; format: in vivo, Sprague-Dawley rats; conditions: 2-months
Excerpt: Rat Posterolateral Spinal Fusion of L5-L6 Vertebrae: 20 male, […] skeletally mature Sprague-Dawley rats underwent bilateral lumbar posterolateral spinal fusion at the L5-L6 vertebrae. […] Under sterile conditions a 2-cm long posterior midline incision centered at L5-L6 vertebrae was made. A muscle-splitting approach was used, lateral to the facet joints, to expose the transverse processes of a particular vertebra. A high-speed 1-mm burr was used to decorticate the transverse processes of the L5-L6 vertebrae. Implants were prepared and implanted between the transverse processes bilaterally in the paraspinal muscle bed. […] Animals were euthanized 2-months (n=5 rats per time point per treatment group for a total of n=20 rats) spines were collected and prepared for micro-CT (μCT) analysis.

[4] = tested on: Hs822t Ewing's sarcoma of bone tumor cells; test: Assay of cell number (MTT), Hs822t cells; format: cell-based; conditions: 1-mM, seventy-two hours
Excerpt: Methods: Human bone marrow was collected from consenting adult patients undergoing either an elective primary proximal femoral total hip arthroplasty or elective primary distal femoral total knee arthroplasty (n=6, mean age 65) as a part of an IRB approved study. Human MSC were derived from the adherent fraction of whole bone marrow aspirates. Ewing's sarcoma tumor cells (RDES, Hs822 and Hs863) and SaOS2 osteosarcoma tumor cells were obtained from ATCC. Cells were maintained in Dulbecco's Modification of Eagle's Media (DMEM) containing 10% fetal calf serum (v/v) and 1% penicillin-streptomycin-glutamine (PSG; Cellgro, Mediatech).
Assay of Cell Number: Following the addition of 1-mM naloxone or 1-mM naltrexone, viable cell number was determined with the MTT assay. After 72-hours and 120-hours, MTT (5 mg/ml (w/v), Sigma) was added to each well, incubated for 2-hours, after which the cells lysed with 500-μl of DMSO (Sigma). MTT was measured at 570-nm and the effects of therapy on cell proliferation were determined by normalizing treated wells relative to mean values from non-treated wells: Fold change in cell number=100*[treated cells optical density/mean control optical density].

## C=CCN1CC[C@]23c4c5ccc(O)c4O[C@H]2C(=O)CC[C@@]3(O)[C@H]1C5 [naloxone]
Monocyte cultures
  proliferation (cell number) in monocyte cultures: decreased proliferation
[1]; 1-mM
  osteoclast number (TRAP staining): reduced osteoclast number substantially
[1]; 1-μM
  osteoclast number (TRAP staining): did not significantly reduce osteoclast number
[2]; 1-mM injected into defect
  increase in trabecular number (TbN): 1.2 fold
[2]; 1-mM injected into defect, relative to control PBS or met5 treated defects
  increase in bone mass (Bv/Tv): 1.53 fold
[2]; naloxone 1-mM or met5 50-μM
  bone healing: increased bone healing
[3]; collagen sponge implant, 25-ng BMP2 or 1-mM naloxone
  bone formation in the lumbar spine versus collagen implants alone: increased bone formation over the collagen implants alone
[3]; naloxone infused collagen implant, 1-mM
  Bv/Tv relative to spines implanted with collagen or the control sham surgery group: substantial increase in By/Tv
[4]
  Hs822t tumor cell number relative to control cultures: no effect
